Measured values reported in patent US20230270754A1, “COMBINATION THERAPY FOR INHALATION ADMINISTRATION” (Chemo Research, S.L., priority 2020, published 2023).

Columns and labels:
Type in all cases: physicochemical
[1] = Active ingredient content after filtration (assay by Reverse Phase HPLC), Example 1; settings: triple combination BDP/GB/FF; for Formulation 1 Assay (%) active ingredient content compared to the theoretical amount: Formulation 1: 70% Ethanol; for Formulation 2 Assay (%) active ingredient content compared to the theoretical amount: Formulation 2: 96% Ethanol
Experimental: Both formulations were filtrated, and individual assay of all active ingredients were tested by Reverse Phase HPLC.
Three independent Reverse Phase HPLC analytical methods were used for the determination of each active ingredient in all the analyses.

[2] = APSD by NGI, Example 2 Trimbow pMDI vs soft mist inhaler
Experimental: (§1) The in vitro aerodynamic assessment was carried using a next generation impactor, NGI (Copley Scientific Ltd), equipped with a mouthpiece adapter for the insertion of the inhaler, an induction port and an internal filter holder (IFH) to capture the smaller particles. The product was tested as per procedure detailed in the European pharmacopoeia chapter 2.9.18 (apparatus E) and US Pharmacopeia chapter <601> (apparatus 6) for Soft Mist Inhalers.
The NGI was cooled to 5° C. for at least 75 min. The cooling chamber was then opened and, after 30 minutes, the NGI was connected to a HCP5 vacuum pump (Copley Scientific Ltd). […]
(§2) After the required actuations, the particles deposited on the different surfaces of the impactor were extracted using a suitable diluent (methanol) and with the help of a Gentle Rocker (Copley Scientific Ltd).
(§3) Data analysis. The NGI results were plotted against the stage cut-off diameter as the mass recovered from the induction port to the filter. Fine particle fraction (FPF %), mass median aerodynamic diameter (MMAD), fine particle dose (FPD) were determined from the analysis of the NGI data.
(§4) Results are expressed as the mean value of two NGIs analysis.

[3] = APSD by NGI, Example 3 Foster pMDI vs soft mist inhaler
Experimental: as §1, with “European” for “European pharmacopoeia chapter 2.9.18 (apparatus E)”, “Pharmacopeia” for “Pharmacopeia chapter <601> (apparatus 6)”, “Inhalers and pMDIs.” for “Inhalers.”
The NGI was cooled to 5° C. for at least 75 min. The cooling chamber was then opened and, after 30 minutes, the NGI was connected to a HCP5 vacuum pump (Copley Scientific Ltd). For each experiment, ten doses were discharged into the NGI at 30 L/min for 5 seconds each.
as §2, with “Ltd). Active ingredients were then quantified by HPLC, with the same methods used for the Example 1.” for “Ltd).”
Data analysis. The NGI was plotted against the stage cut-off diameter as the mass recovered from the induction port to the filter. Fine particle fraction (FPF %) and mass median aerodynamic diameter (MMAD) were determined from the analysis of the NGI data.
as §4

[4] = Delivered dose by dose unit sampling apparatus (DUSA), Example 2
Source text: Active pharmaceutical ingredients (APIs) deposited in the sampling apparatus were quantitatively recovered with a DUSA shaker (Copley Scientific Ltd) and methanol. APIs were, then, quantified by HPLC with the same methods described in Example 1.
Results are expressed as the average of 5 measurements.

[5] = APSD by NGI, Example 5 Symbicort pMDI vs soft mist inhaler
Experimental: The in vitro aerodynamic particle size distribution of both formulations was evaluated using an impactor, the next generation impactor, NGI (Copley Scientific Ltd) equipped with a mouthpiece adapter for the insertion of the inhaler, an induction port and an internal filter holder (IFH) to capture the smaller particles. The product was tested as per procedure detailed in the European and US Pharmacopoeia for Soft Mist Inhalers and pMDIs.
(§5) The NGI was cooled to 5° C. for at least 75 min. The cooling chamber was then opened and, after 30 minutes, the NGI was connected to a HCP5 vacuum pump (Copley Scientific Ltd). For each experiment, ten doses were discharged per NGI actuated at 28.3 L/min for 5 seconds each.
as §2, with “(75/25 v/v MeOH/water)” for “(methanol)”, “Ltd). Active ingredients were then quantified by HPLC, with the same methods described in example 4.” for “Ltd).”
Data analysis. The NGI was plotted against the stage cut-off diameter as the mass recovered from the induction port to the filter. Fine particle fraction (FPF %), and mass median aerodynamic diameter (MMAD) were determined from the analysis of the NGI data.
as §4

[6] = APSD by NGI, Example 4 budesonide/formoterol 70% vs 96% ethanol, soft mist inhaler
Experimental: Typical System Suitability Criteria applies as per USP <621> requirements.
For the APSD evaluation Formulation 1 and 2 were filled into cartridges compatible with a soft mist inhaler (Respimat®). The in vitro aerodynamic particle size distribution of both formulations was evaluated using an impactor, the next generation impactor, NGI (Copley Scientific Ltd) equipped with a mouthpiece adapter for the insertion of the inhaler, an induction port and an internal filter holder (IFH) to capture the smaller particles. The product was tested as per procedure detailed in the European pharmacopoeia chapter 2.9.18 (apparatus E) and US Pharmacopeia chapter <601> (apparatus 6) for Soft Mist Inhalers.
as §5
After the required actuations, the particles deposited on the different surfaces of the impactor were extracted using a suitable diluent (75/25 v/v MeOH/water) and with the help of a Gentle Rocker (Copley Scientific Ltd). Active ingredients were then quantified by HPLC as described above.
as §3, §4

[7] = Soft Mist Inhaler (1 actuation), triple combination in 96% ethanol
[8] = Soft Mist Inhaler (1 actuation), double combination BDP/FF in 96% ethanol
[9] = Trimbow pMDI (2 actuations), table title: Foster pMDI (2 actuation)
[10] = Soft Mist Inhaler (Respimat) 1 actuation, triple combination in 96% ethanol
[11] = Soft Mist Inhaler (1 actuation), budesonide/formoterol in 96% ethanol

Row | SMILES | Formulation 1 Assay (%) active ingredient content compared to the theoretical amount [1] [%] | Formulation 2 Assay (%) active ingredient content compared to the theoretical amount [1] [%] | FPD [2, 7] [µg] | FPF [2, 7] [%] | IP (induction port deposition) [2, 7] [%] | FPD ([2]; Trimbow pMDI (2 actuations)) [µg] | FPF ([2]; Trimbow pMDI (2 actuations)) [%] | IP (induction port deposition) ([2]; Trimbow pMDI (2 actuations)) [%] | FPF (%) [3, 8] [%] | MMAD (μm) [3, 8] [μm] | FPF (%) [3, 9] [%] | MMAD (μm) [3, 9] [μm] | DUSA (μg) delivered dose [4, 10] [µg] | DUSA (μg) delivered dose ([4]; Trimbow pMDI 1 actuation) [µg] | other results
1 | COc1ccc(C[C@@H](C)NC[C@H](O)c2ccc(O)c(NC=O)c2)cc1.O.O.O=C(O)/C=C/C(=O)O (racemic) [Formoterol Fumarate] | 93.8 | 100.3 | 5.3 | 87.8 | 8.3 | 5.2 | 44.6 | 53.4 | 90.4 | 1.2 | 45.8 | 1.2 | 6.1 | 5.7 | FPF (%) [5, 11]: 89.7%; MMAD (μm) [5, 11]: 1.1 μm; FPF (%) ([5]; Symbicort pMDI (1 actuation)): 58.7%; MMAD (μm) ([5]; Symbicort pMDI (1 actuation)): 3.3 μm; FPD ([6]; Formulation 1 (70% EtOH)): 3.3 µg; FPF ([6]; Formulation 1 (70% EtOH)): 68.4%; MMAD ([6]; Formulation 1 (70% EtOH)): 2.7 μm; FPF ([6]; Formulation 2 (96% EtOH)): 89.7%
2 | CCC(=O)OCC(=O)[C@@]1(OC(=O)CC)[C@@H](C)C[C@H]2[C@@H]3CCC4=CC(=O)C=C[C@]4(C)[C@@]3(Cl)[C@@H](O)C[C@@]21C [Beclometasone Dipropionate, 9-chloro-11β,17,21-trihydroxy-16β-methylpregna-1,4-diene-3, 20-dione 17,21-dipropionate] | 40.1 | 99.7 | 91.7 | 87.9 | 8.3 | 86.0 | 42.9 | 52.9 | 91.3 | 1.1 | 49.4 | 1.2 | 97.1 | 98.4 | MMAD [2, 7]: 1.2 μm; MMAD ([2]; Trimbow pMDI (2 actuations)): 1.2 μm
